Columns and labels:
Test in all cases: relative viability (nuclei count vs DMSO), 5 days (fraction); higher = more cells survive
201T = tested on: 201T
In short: (§1)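 Medians of duplicate plates are given as relative viability. That measure is the nuclei count in treated wells divided by the count in vehicle wells. Counts were taken on 4× images of lung cancer cell lines in 1536-well plates, 5 days after pin-tool dosing the day after seeding with one drug alone or a fixed anchor-drug dose plus five library-drug doses (not always all listed) in √10 steps.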

COR-L 105 = tested on: COR-L 105
In short: as §1

COR-L23 = tested on: COR-L23
In short: as §1

EMC-BAC-2 = tested on: EMC-BAC-2
In short: as §1

HCC-15 = tested on: HCC-15
In short: as §1

HCC-366 = tested on: HCC-366
In short: as §1

LC-2-ad = tested on: LC-2-ad
In short: as §1

NCI-H1395 = tested on: NCI-H1395
In short: as §1

NCI-H1437 = tested on: NCI-H1437
In short: as §1

NCI-H1755 = tested on: NCI-H1755
In short: as §1

NCI-H1792 = tested on: NCI-H1792
In short: as §1

NCI-H1793 = tested on: NCI-H1793
In short: as §1

NCI-H1915 = tested on: NCI-H1915
In short: as §1

NCI-H2009 = tested on: NCI-H2009
In short: as §1

NCI-H2023 = tested on: NCI-H2023
In short: as §1

NCI-H2342 = tested on: NCI-H2342
In short: as §1

NCI-H2347 = tested on: NCI-H2347
In short: as §1

NCI-H23 = tested on: NCI-H23
In short: as §1

NCI-H358 = tested on: NCI-H358
In short: as §1

NCI-H650 = tested on: NCI-H650
In short: as §1

PC-14 = tested on: PC-14
In short: as §1

SK-MES-1 = tested on: SK-MES-1
In short: as §1

Q: Which results are given for Cc1cn(-c2cc(NC(=O)c3ccc(C)c(Nc4nccc(-c5cccnc5)n4)c3)cc(C(F)(F)F)c2)cn1 [Nilotinib] + CC(=O)Nc1cccc(-n2c(=O)n(C3CC3)c(=O)c3c(Nc4ccc(I)cc4F)n(C)c(=O)c(C)c32)c1 [Trametinib] (partner 0.02 µM)?
A: relative viability (201T; first compound 0.001 µM): 0.709; relative viability (201T; first compound 0.003162 µM): 0.749; relative viability (201T; first compound 0.01 µM): 0.739; relative viability (201T; first compound 0.03162 µM): 0.717; relative viability (201T; first compound 0.1 µM): 0.728; relative viability (COR-L 105; first compound 0.001 µM): 0.439; relative viability (COR-L 105; first compound 0.003162 µM): 0.475; relative viability (COR-L 105; first compound 0.01 µM): 0.533; relative viability (COR-L 105; first compound 0.03162 µM): 0.396; relative viability (COR-L 105; first compound 0.1 µM): 0.443; relative viability (COR-L23; first compound 0.001 µM): 0.472; relative viability (COR-L23; first compound 0.003162 µM): 0.419; relative viability (COR-L23; first compound 0.01 µM): 0.384; relative viability (COR-L23; first compound 0.03162 µM): 0.283; relative viability (COR-L23; first compound 0.1 µM): 0.266; relative viability (EMC-BAC-2; first compound 0.001 µM): 0.874; relative viability (EMC-BAC-2; first compound 0.003162 µM): 0.697; relative viability (EMC-BAC-2; first compound 0.01 µM): 0.849; relative viability (EMC-BAC-2; first compound 0.03162 µM): 0.604; relative viability (EMC-BAC-2; first compound 0.1 µM): 0.65; relative viability (HCC-15; first compound 0.001 µM): 0.375; relative viability (HCC-15; first compound 0.003162 µM): 0.357; relative viability (HCC-15; first compound 0.01 µM): 0.369; relative viability (HCC-15; first compound 0.03162 µM): 0.284; relative viability (HCC-15; first compound 0.1 µM): 0.233; relative viability (HCC-366; first compound 0.001 µM): 0.35; relative viability (HCC-366; first compound 0.003162 µM): 0.361; relative viability (HCC-366; first compound 0.01 µM): 0.327; relative viability (HCC-366; first compound 0.03162 µM): 0.243; relative viability (HCC-366; first compound 0.1 µM): 0.145; relative viability (LC-2-ad; first compound 0.001 µM): 0.876; relative viability (LC-2-ad; first compound 0.003162 µM): 1.09; relative viability (LC-2-ad; first compound 0.01 µM): 0.967; relative viability (LC-2-ad; first compound 0.03162 µM): 0.596; relative viability (LC-2-ad; first compound 0.1 µM): 0.517; relative viability (NCI-H1395; first compound 0.001 µM): 0.988; relative viability (NCI-H1395; first compound 0.01 µM): 1.19; relative viability (NCI-H1395; first compound 0.03162 µM): 0.96; relative viability (NCI-H1395; first compound 0.1 µM): 0.9; relative viability (NCI-H1437; first compound 0.001 µM): 0.445; relative viability (NCI-H1437; first compound 0.003162 µM): 0.541; relative viability (NCI-H1437; first compound 0.01 µM): 0.631; relative viability (NCI-H1437; first compound 0.03162 µM): 0.382; relative viability (NCI-H1437; first compound 0.1 µM): 0.429; relative viability (NCI-H1755; first compound 0.001 µM): 0.745; relative viability (NCI-H1755; first compound 0.003162 µM): 0.806; relative viability (NCI-H1755; first compound 0.01 µM): 0.699; relative viability (NCI-H1755; first compound 0.03162 µM): 0.64; relative viability (NCI-H1755; first compound 0.1 µM): 0.556; relative viability (NCI-H1792; first compound 0.001 µM): 0.365; relative viability (NCI-H1792; first compound 0.003162 µM): 0.491; relative viability (NCI-H1792; first compound 0.01 µM): 0.446; relative viability (NCI-H1792; first compound 0.03162 µM): 0.077; relative viability (NCI-H1792; first compound 0.1 µM): 0.162; relative viability (NCI-H1793; first compound 0.001 µM): 0.403; relative viability (NCI-H1793; first compound 0.003162 µM): 0.396; relative viability (NCI-H1793; first compound 0.01 µM): 0.328; relative viability (NCI-H1793; first compound 0.03162 µM): 0.239; relative viability (NCI-H1793; first compound 0.1 µM): 0.251; relative viability (NCI-H1915; first compound 0.001 µM): 0.237; relative viability (NCI-H1915; first compound 0.003162 µM): 0.283; relative viability (NCI-H1915; first compound 0.01 µM): 0.224; relative viability (NCI-H1915; first compound 0.03162 µM): 0.151; relative viability (NCI-H1915; first compound 0.1 µM): 0.164; relative viability (NCI-H2009; first compound 0.001 µM): 0.232; relative viability (NCI-H2009; first compound 0.003162 µM): 0.203; relative viability (NCI-H2009; first compound 0.01 µM): 0.278; relative viability (NCI-H2009; first compound 0.03162 µM): 0.2; relative viability (NCI-H2009; first compound 0.1 µM): 0.197; relative viability (NCI-H2023; first compound 0.001 µM): 0.485; relative viability (NCI-H2023; first compound 0.003162 µM): 0.619; relative viability (NCI-H2023; first compound 0.01 µM): 0.508; relative viability (NCI-H2023; first compound 0.03162 µM): 0.329; relative viability (NCI-H2023; first compound 0.1 µM): 0.433; relative viability (NCI-H2342; first compound 0.001 µM): 0.786; relative viability (NCI-H2342; first compound 0.003162 µM): 0.76; relative viability (NCI-H2342; first compound 0.01 µM): 0.798; relative viability (NCI-H2342; first compound 0.03162 µM): 0.711; relative viability (NCI-H2342; first compound 0.1 µM): 0.842; relative viability (NCI-H2347; first compound 0.001 µM): 0.267; relative viability (NCI-H2347; first compound 0.003162 µM): 0.23; relative viability (NCI-H2347; first compound 0.01 µM): 0.234; relative viability (NCI-H2347; first compound 0.03162 µM): 0.268; relative viability (NCI-H2347; first compound 0.1 µM): 0.271; relative viability (NCI-H23; first compound 0.001 µM): 0.319; relative viability (NCI-H23; first compound 0.01 µM): 0.292; relative viability (NCI-H23; first compound 0.03162 µM): 0.202; relative viability (NCI-H23; first compound 0.1 µM): 0.197; relative viability (NCI-H358; first compound 0.001 µM): 0.134; relative viability (NCI-H358; first compound 0.003162 µM): 0.143; relative viability (NCI-H358; first compound 0.01 µM): 0.13; relative viability (NCI-H358; first compound 0.03162 µM): 0.116; relative viability (NCI-H358; first compound 0.1 µM): 0.128; relative viability (NCI-H650; first compound 0.001 µM): 0.952; relative viability (NCI-H650; first compound 0.003162 µM): 0.915; relative viability (NCI-H650; first compound 0.01 µM): 1.03; relative viability (NCI-H650; first compound 0.03162 µM): 0.974; relative viability (NCI-H650; first compound 0.1 µM): 0.9; relative viability (PC-14; first compound 0.001 µM): 0.671; relative viability (PC-14; first compound 0.003162 µM): 1.14; relative viability (PC-14; first compound 0.01 µM): 0.708; relative viability (PC-14; first compound 0.03162 µM): 0.448; relative viability (PC-14; first compound 0.1 µM): 0.526; relative viability (SK-MES-1; first compound 0.001 µM): 0.581; relative viability (SK-MES-1; first compound 0.003162 µM): 0.482; relative viability (SK-MES-1; first compound 0.01 µM): 0.492; relative viability (SK-MES-1; first compound 0.03162 µM): 0.437; relative viability (SK-MES-1; first compound 0.1 µM): 0.339
